This note sets out measurements from US7319021B2, “Cell lysis composition, methods of use, apparatus and kit” (Promega Corporation, priority 2002, dated 2008).

Values joined by “and” are separate entries in the source; they are usually repeats but may differ in a detail not shown here. Identical values can stand only once.

The test system of data set [1] is E. coli cells. Put plainly: Optical density and visual turbidity of E. coli culture after treatment (Example 2). It counts as cell-based. On the procedure:
E. coli bacteria expressing His-tagged Renilla Luciferase were grown in Luria Broth [L Broth]+10 ng/ml tetracycline [Tet] [50 ml of media in a 250 ml flask] at 37° C. overnight in a shaking incubator rotating at 200 RPM. The E. coli strain was prepared by transforming E. coli with a vector expressing histidine-tagged Renilla luciferase. The vector was constructed by conventional methods. See Maniatis et al., “Molecular Cloning: A Laboratory Manual,” 2nd Edition, Cold Spring Harbor Laboratory, Cold Spring Harbor, N.Y. (1982). Following overnight culture the bacterial cells were diluted 1:100 into fresh L broth+Tet and grown to a density of 0.6 at 600 nm [OD 600 0.6] at 37C on the shaking incubator. Renilla expression was induced by addition of isopropyl-beta-D-thiogalactopyranoside (IPTG) from a 1M filter sterilized solution to a final concentration of 1 mM. The culture was grown for 4 additional hours at 37C on the shaking incubator before use. […]
900 ul of 20 mM Tris-HCl pH 7.3 and 100 ul of the corresponding solutions were added to each of 12 disposable plastic cuvettes. After the instrument background was set to zero with a 20 mM Tris-HCl pH 7.3 solution at an optical density of 600 nm (OD600), and the optical density of the solutions was measured.

In data set [2] the test system is E. coli cells. Put plainly: Release of Renilla Luciferase from E. coli (Example 2). It counts as cell-based. As for the experimental part:
E. coli bacteria expressing His-tagged Renilla Luciferase were grown in Luria Broth [L Broth]+10 ng/ml tetracycline [Tet] [50 ml of media in a 250 ml flask] at 37° C. overnight in a shaking incubator rotating at 200 RPM. The E. coli strain was prepared by transforming E. coli with a vector expressing histidine-tagged Renilla luciferase. The vector was constructed by conventional methods. See Maniatis et al., “Molecular Cloning: A Laboratory Manual,” 2nd Edition, Cold Spring Harbor Laboratory, Cold Spring Harbor, N.Y. (1982). Following overnight culture the bacterial cells were diluted 1:100 into fresh L broth+Tet and grown to a density of 0.6 at 600 nm [OD 600 0.6] at 37C on the shaking incubator. Renilla expression was induced by addition of isopropyl-beta-D-thiogalactopyranoside (IPTG) from a 1M filter sterilized solution to a final concentration of 1 mM. The culture was grown for 4 additional hours at 37C on the shaking incubator before use.
One ml of the Renilla luciferase expressing E. coli culture was added to each of 12 tubes, labeled 1 through 12: tubes 1-3, no further addition; tubes 4-6, 10 ul of 10 mg/ml lysozyme; tubes […], 100 ul of CLR formulation A, and; tubes 10-12, 100 ul of CLR formulation A and 10 ul of 10 mg/ml lysozyme. […]

Regarding “lysozyme: 10 mg/ml solution of lysozyme [Sigma L 6876] in 20 mM Tris-HCl buffer, pH 7.3; 10 ul per ml culture”, the OD600 with E. coli cells [1] (100 ul of treated culture in 900 ul 20 mM Tris-HCl pH 7.3, culture expressing His-tagged Renilla Luciferase) was 0.3264 and 0.3261 and 0.3033. In addition, the “level of turbidity, visual inspection” value with E. coli cells [1] (tubes inverted 10 times) was “very turbid”. Moreover, in the data set with E. coli cells [2] (2 ul of pellet resuspended in 800 ul), the “Relative Light Units Resuspended Pellet Sample” value was 58.41 Relative Light Units and 60.99 Relative Light Units and 72.03 Relative Light Units. In addition, the “Relative light Units, Supernatant Sample” value in the data set on E. coli cells [2] (2 ul of supernatant) is 0.053 Relative light Units and 0.074 Relative light Units and 0.048 Relative light Units.
